The results in this text go back to patent US9518018B2, “3-alkoxy, thioalkyl and amino-4-amino-6-(substituted)picolinates and their use as herbicides” (Dow AgroSciences LLC, priority 2011, dated 2016).

In one assay the test system is ZEAMX: corn (Zea mays). Briefly: Post-Emergent Test I herbicidal activity. Particulars: Zea mays, post-emergence, 336 h, Table 3, 140 g ai/ha, read-out: Visual Growth Reduction (%)-14 Days after Application ZEAMX. The assay is classed as in vivo. The method, then: (§1) Seeds or nutlets of the desired test plant species were planted in Sun Gro Metro-Mix® 360 planting mixture, which typically has a pH of 6.0 to 6.8 and an organic matter content of about 30 percent, in plastic pots with a surface area of 64 square centimeters. When required to ensure good germination and healthy plants, a fungicide treatment and/or other chemical or physical treatment was applied. The plants were grown for 7-21 d in a greenhouse with an approximate 15 h photoperiod which was maintained at about 23-29° C. during the day and 22-28° C. during the night. Nutrients and water were added on a regular basis and supplemental lighting was provided with overhead metal halide 1000-Watt lamps as necessary. The plants were employed for testing when they reached the first or second true leaf stage.
(§2) A weighed amount, determined by the highest rate to be tested, of each test compound was placed in a 25 mL glass vial and was dissolved in 4 mL of a 97:3 v/v mixture of acetone and DMSO to obtain concentrated stock solutions. […] The concentrated stock solutions obtained were diluted with 20 mL of an aqueous mixture containing acetone, water, isopropyl alcohol, DMSO, Atplus 411F crop oil concentrate, and Triton® X-155 surfactant in a 48.5:39:10:1.5:1.0:0.02 v/v ratio to obtain spray solutions containing the highest application rates. Additional application rates were obtained by serial dilution of 12 mL of the high rate solution into a solution containing 2 mL of 97:3 v/v mixture of acetone and DMSO and 10 mL of an aqueous mixture containing acetone, water, isopropyl alcohol, DMSO, Atplus 411F crop oil concentrate, and Triton X-155 surfactant in a 48.5:39:10:1.5:1.0:0.02 v/v ratio to obtain ½×, ¼×, ⅛× and 1/16× rates of the high rate. Compound requirements are based upon a 12 mL application volume at a rate of 187 liters per hectare (L/ha). Formulated compounds were applied to the plant material with an overhead Mandel track sprayer equipped with 8002E nozzles calibrated to deliver 187 L/ha over an application area of 0.503 square meters at a spray height of 18 inches (43 cm) above the average plant canopy height. Control plants were sprayed in the same manner with the solvent blank.
(§3) The treated plants and control plants were placed in a greenhouse as described above and watered by subirrigation to prevent wash-off of the test compounds. After 14 d, the condition of the test plants as compared with that of the untreated plants was determined visually and scored on a scale of 0 to 100 percent where 0 corresponds to no injury and 100 corresponds to complete kill.
(§4) By applying the well-accepted probit analysis as described by J. Berkson in Journal of the […], 48, 565 (1953) and by D. Finney in “Probit Analysis” Cambridge University Press (1952), the above data can be used to calculate GR20, GR50 and GR80 values, which are defined as growth reduction factors that correspond to the effective dose of herbicide required to kill or control 20 percent, 50 percent or 80 percent, respectively, of a target plant.
As to `COc1c(C(=O)O)nc(-c2ccc(Br)cc2F)c(F)c1N` [Compound 61], the pest or weed control at 140 g/ha worked out at 75%.

As for `COC(=O)c1nc(C(F)F)cc(N)c1OC` [Compound 92], the pest or weed control at 140 g/ha was 0%.

For the molecule `COC(=O)c1nc(-c2ccc(Cl)cc2F)cc(NC(C)=O)c1OC` [Compound 4, Methyl 4-acetamido-6-(4-chloro-2-fluorophenyl)-3-methoxypicolinate], the pest or weed control at 140 g/ha came out at 0%.

Turning to `COc1c(N)cc(C(C)(F)F)nc1C(=O)O` [Compound 82, 4-amino-6-(1,1-difluoroethyl)-3-methoxypicolinic acid], the pest or weed control at 140 g/ha was 0%.

On to `COC(=O)c1nc(-c2ccc(C#N)cc2)c(F)c(N)c1OC` [Compound 41], for which the pest or weed control at 140 g/ha worked out at 70%.

`COC(=O)c1nc(-c2ccc(I)c(F)c2F)c(F)c(N)c1OC` [Compound 24]: the pest or weed control at 140 g/ha amounted to 75%.

Another assay concerns CYPES: yellow nutsedge (Cyperus esculentus). Briefly: Post-Emergent Test I herbicidal activity. The assay is classed as in vivo. Particulars: post-emergence, 336 h, Table 3, 140 g ai/ha, read-out: Visual Growth Reduction (%)-14 Days after Application CYPES. The method, then:
as §1, §2, §3, §4
As to `COc1c(C(=O)O)nc(-c2ccc(Br)cc2F)c(F)c1N` [Compound 61], the pest or weed control at 140 g/ha was 100%.

As for `COC(=O)c1nc(C(F)F)cc(N)c1OC` [Compound 92], the pest or weed control at 140 g/ha amounted to 0%.

Take `COC(=O)c1nc(-c2ccc(Cl)cc2F)cc(NC(C)=O)c1OC` [Compound 4, Methyl 4-acetamido-6-(4-chloro-2-fluorophenyl)-3-methoxypicolinate]: the pest or weed control at 140 g/ha worked out at 0%.

Consider `COc1c(N)cc(C(C)(F)F)nc1C(=O)O` [Compound 82, 4-amino-6-(1,1-difluoroethyl)-3-methoxypicolinic acid], for which the pest or weed control at 140 g/ha was 0%.

Take `COC(=O)c1nc(-c2ccc(C#N)cc2)c(F)c(N)c1OC` [Compound 41]: the pest or weed control at 140 g/ha was found to be 100%.

As for `COC(=O)c1nc(-c2ccc(I)c(F)c2F)c(F)c(N)c1OC` [Compound 24], the pest or weed control at 140 g/ha turned out to be 100%.

The next assay relates to ABUTH: velvetleaf (Abutilon theophrasti). Briefly: Post-Emergent Test I herbicidal activity. It counts as in vivo. As to conditions: Abutilon theophrasti, post-emergence, 336 h, Table 3, 140 g ai/ha, read-out: Visual Growth Reduction (%)-14 Days after Application ABUTH. Here is the method:
as §1, §2, §3, §4
With `COc1c(C(=O)O)nc(-c2ccc(Br)cc2F)c(F)c1N` [Compound 61], the pest or weed control at 140 g/ha amounted to 80%.

Turning to `COC(=O)c1nc(C(F)F)cc(N)c1OC` [Compound 92], the pest or weed control at 140 g/ha was 40%.

As to `COC(=O)c1nc(-c2ccc(Cl)cc2F)cc(NC(C)=O)c1OC` [Compound 4, Methyl 4-acetamido-6-(4-chloro-2-fluorophenyl)-3-methoxypicolinate], the pest or weed control at 140 g/ha was 80%.

For `COc1c(N)cc(C(C)(F)F)nc1C(=O)O` [Compound 82, 4-amino-6-(1,1-difluoroethyl)-3-methoxypicolinic acid], the pest or weed control at 140 g/ha turned out to be 20%.

For the molecule `COC(=O)c1nc(-c2ccc(C#N)cc2)c(F)c(N)c1OC` [Compound 41], the pest or weed control at 140 g/ha amounted to 80%.

Consider `COC(=O)c1nc(-c2ccc(I)c(F)c2F)c(F)c(N)c1OC` [Compound 24], for which the pest or weed control at 140 g/ha stood at 60%.

The next assay concerns ORYSA: rice (Oryza sativa). Briefly: Post-Emergent Test I herbicidal activity. As to conditions: post-emergence, 336 h, Table 3, 140 g ai/ha, read-out: Visual Growth Reduction (%)-14 Days after Application ORYSA. It counts as in vivo. Here is the method: as §1, §2, §3, §4
Take `COc1c(C(=O)O)nc(-c2ccc(Br)cc2F)c(F)c1N` [Compound 61]: the pest or weed control at 140 g/ha was 10%.

As for `COC(=O)c1nc(C(F)F)cc(N)c1OC` [Compound 92], the pest or weed control at 140 g/ha worked out at 0%.

On to `COC(=O)c1nc(-c2ccc(Cl)cc2F)cc(NC(C)=O)c1OC` [Compound 4, Methyl 4-acetamido-6-(4-chloro-2-fluorophenyl)-3-methoxypicolinate], for which the pest or weed control at 140 g/ha turned out to be 0%.

Take `COc1c(N)cc(C(C)(F)F)nc1C(=O)O` [Compound 82, 4-amino-6-(1,1-difluoroethyl)-3-methoxypicolinic acid]: the pest or weed control at 140 g/ha came out at 0%.

Turning to `COC(=O)c1nc(-c2ccc(C#N)cc2)c(F)c(N)c1OC` [Compound 41], the pest or weed control at 140 g/ha was 0%.

On to `COC(=O)c1nc(-c2ccc(I)c(F)c2F)c(F)c(N)c1OC` [Compound 24], for which the pest or weed control at 140 g/ha was found to be 0%.

For the next assay, the system named is ECHCG: barnyardgrass (Echinochloa crus-galli). Briefly: Post-Emergent Test I herbicidal activity. It counts as in vivo. As to conditions: post-emergence, 336 h, Table 3, 140 g ai/ha, read-out: Visual Growth Reduction (%)-14 Days after Application ECHCG. The method, then:
as §1, §2, §3, §4
Regarding `COc1c(C(=O)O)nc(-c2ccc(Br)cc2F)c(F)c1N` [Compound 61], the pest or weed control at 140 g/ha was found to be 95%.

On to `COC(=O)c1nc(C(F)F)cc(N)c1OC` [Compound 92], for which the pest or weed control at 140 g/ha amounted to 0%.

With `COC(=O)c1nc(-c2ccc(Cl)cc2F)cc(NC(C)=O)c1OC` [Compound 4, Methyl 4-acetamido-6-(4-chloro-2-fluorophenyl)-3-methoxypicolinate], the pest or weed control at 140 g/ha was 0%.

Take `COc1c(N)cc(C(C)(F)F)nc1C(=O)O` [Compound 82, 4-amino-6-(1,1-difluoroethyl)-3-methoxypicolinic acid]: the pest or weed control at 140 g/ha stood at 0%.

Regarding `COC(=O)c1nc(-c2ccc(C#N)cc2)c(F)c(N)c1OC` [Compound 41], the pest or weed control at 140 g/ha is 0%.

`COC(=O)c1nc(-c2ccc(I)c(F)c2F)c(F)c(N)c1OC` [Compound 24]: the pest or weed control at 140 g/ha came to 50%.

The next assay relates to EPHHL: wild poinsettia (Euphorbia heterophylla). Briefly: Post-Emergent Test I herbicidal activity. It counts as in vivo. As to conditions: post-emergence, 336 h, Table 3, 140 g ai/ha, read-out: Visual Growth Reduction (%)-14 Days after Application EPHHL. The method, then: as §1, §2, §3, §4
For `COc1c(C(=O)O)nc(-c2ccc(Br)cc2F)c(F)c1N` [Compound 61], the pest or weed control at 140 g/ha was determined as 100%.

On to `COC(=O)c1nc(C(F)F)cc(N)c1OC` [Compound 92], for which the pest or weed control at 140 g/ha was 70%.

With `COC(=O)c1nc(-c2ccc(Cl)cc2F)cc(NC(C)=O)c1OC` [Compound 4, Methyl 4-acetamido-6-(4-chloro-2-fluorophenyl)-3-methoxypicolinate], the pest or weed control at 140 g/ha worked out at 100%.

Take `COc1c(N)cc(C(C)(F)F)nc1C(=O)O` [Compound 82, 4-amino-6-(1,1-difluoroethyl)-3-methoxypicolinic acid]: the pest or weed control at 140 g/ha was 80%.

Take `COC(=O)c1nc(-c2ccc(C#N)cc2)c(F)c(N)c1OC` [Compound 41]: the pest or weed control at 140 g/ha was 100%.

As to `COC(=O)c1nc(-c2ccc(I)c(F)c2F)c(F)c(N)c1OC` [Compound 24], the pest or weed control at 140 g/ha came out at 100%.

The next assay has as its system CHEAL: lambsquarters (Chenopodium album). Briefly: Post-Emergent Test I herbicidal activity. It counts as in vivo. As to conditions: Chenopodium album, post-emergence, 336 h, Table 3, 140 g ai/ha, read-out: Visual Growth Reduction (%)-14 Days after Application CHEAL. The method, then: as §1, §2, §3, §4
In the case of `COc1c(C(=O)O)nc(-c2ccc(Br)cc2F)c(F)c1N` [Compound 61], the pest or weed control at 140 g/ha amounted to 100%.

Take `COC(=O)c1nc(C(F)F)cc(N)c1OC` [Compound 92]: the pest or weed control at 140 g/ha was 95%.

`COC(=O)c1nc(-c2ccc(Cl)cc2F)cc(NC(C)=O)c1OC` [Compound 4, Methyl 4-acetamido-6-(4-chloro-2-fluorophenyl)-3-methoxypicolinate]: the pest or weed control at 140 g/ha came to 100%.

With `COc1c(N)cc(C(C)(F)F)nc1C(=O)O` [Compound 82, 4-amino-6-(1,1-difluoroethyl)-3-methoxypicolinic acid], the pest or weed control at 140 g/ha came to 85%.

On to `COC(=O)c1nc(-c2ccc(C#N)cc2)c(F)c(N)c1OC` [Compound 41], for which the pest or weed control at 140 g/ha was 100%.

Take `COC(=O)c1nc(-c2ccc(I)c(F)c2F)c(F)c(N)c1OC` [Compound 24]: the pest or weed control at 140 g/ha was 65%.
